# Experimental data as given in US20070207984A1, “Cyclohexylamino Benzene, Pyridine, and Pyridazine Derivatives” (priority 2006, published 2007).
# Tests used:
# [1] = test system: PC-3 cell proliferation; assay: Cell proliferation assay (WST-1), PC-3 cells; assay type: cell-based; settings: Homo sapiens, WST-1 optical density at 450 nm, growth vs DMSO (100%) and 10 μM Actinomycin D (0%), read-out: inhibitory activity against PC-3 cell proliferation (IC50 range)
# Protocol: A panel of cancer cell lines was obtained from the DCTP Tumor Repository, National Cancer Institute (Frederick, Md.) or ATCC (Rockville, Md.). Cell cultures were maintained in Hyclone RPMI 1640 medium (Logan, Utah) supplemented with 10% fetal bovine serum and 20 mM HEPES buffer, final pH 7.2, at 37° C. with a 5% CO2 atmosphere. Cultures were maintained at sub-confluent densities. Human umbilical vein endothelial cells (HUVEC) were purchased from Clonetics, a division of Cambrex (Walkersville, Md.). Cultures were established from cryopreserved stocks using Clonetics EGM-2 medium supplemented with 20 mM HEPES, final pH 7.2, at 37° C. with a 5% CO2 atmosphere.
# For proliferation assays, cells were seeded with the appropriate medium into 96 well plates at 1,000-2,500 cells per well, depending on the cell line, and were incubated overnight. The following day, test compound, DMSO solution (negative control), or Actinomycin D (positive control) was added to the appropriate wells as 10× concentrated stocks prepared in phosphate buffered saline. The cell plates were then incubated for an additional 2-5 days, depending on the cell line, to allow proliferation to occur. To measure cell density, 50 μL of WST-1 solution (Roche Applied Science, IN) diluted 1:5 in phosphate buffered saline was added to each well, and the cells incubated for an additional 1-5 hrs., again depending on the cell line. Optical density was determined for each well at […] using a Tecan GeniosPro plate reader (RTP, NC). The percentage of cell growth was determined by comparing the cell growth in the presence of test compounds to the cells treated with DMSO vehicle (control, 100% growth) and cells treated with Actinomycin D (10 μM, 0% growth).
# Immediately after the WST-1 determination, the medium was removed from the PC-3, NCI-H460 and HUVEC cell lines, and the plates stored at −80° C. Using these assay plates, relative amounts of DNA in each well were determined using the Cyquant DNA assay kit from […] (Eugene, Oreg.) following the manufacturer's directions. Results for each compound treatment were compared to DMSO vehicle control (100%) and 10 μM Actinomycin D treated cells (0%).
# Several exemplary compounds useful in the methods of the invention are listed below.
# [2] = test system: HSP-90 (heat shock protein 90); assay: Determination of affinity for HSP-90 (elution from purine affinity column); assay type: binding; set-up: key: A stands for very high; B for high; C for moderate; settings: purine affinity column loaded with organ tissue proteins; eluted with 20μM, 100 μM, and 500 μM of test compound; densitometry
# Protocol: Affinity of test compounds for HSP-90 was determined as follows: Protein mixtures obtained from a variety of organ tissues (for example: spleen, liver and lung) were reversibly bound to a purine affinity column to capture purine-binding proteins, especially HSP-90. The purine affinity column was washed several times, and then eluted with 20μM, 100 μM, and 500 μM of test compound. Compounds of Formula I elute HP-90 in a dose-dependent manner vs. a control elution using dimethylsulfoxide. The elution profile of Formula I compounds was determined by 1-dimensional SDS polyacrylamide gel electrophoresis. Gels were stained with a fluorescent stain such as sypro ruby (a highly sensitive fluorescent protein stain that can readily detect less than 1 fmol of total protein, i.e., less than 0.04 ng for a 40 kDa protein) or silver nitrate. The gels were imaged using a standard flat bed gel imager and the amount of protein estimated by densitometry. The percent of HSP-90 protein eluted from the column at each concentration was determined and IC50 values were calculated from these estimates. The identity of a band containing HSP-90 was determined by protein sequencing using mass spectroscopy.
# Compounds of the invention are inhibitors of HSP-90 (heat shock protein 90). Several exemplary compounds useful in the methods of the invention are listed below.
IC50 [1] [nM],relative binding affinity to HSP-90 [2],Compound
< 500,,CC1(C)CC(=O)c2c(C(F)(F)F)nn(-c3ccc(C(N)=O)c(NC4CCC(OC(=O)[C@@H](N)CCCCN)CC4)c3)c2C1 (stereo partly drawn)
< 500,,CC1(C)CC(=O)c2c(C(F)(F)F)nn(-c3ccc(C(N)=O)c(NC4CCC(OC(=O)CCNC(=O)[C@@H](N)CCCN)CC4)c3)c2C1 (stereo partly drawn)
,A,Cc1nn(-c2ccc(C(N)=O)c(NC3CCC(OC(=O)CCNC(=O)OC(C)(C)C)CC3)c2)c2c1C(=O)CC(C)(C)C2 (stereo not drawn) [drawing 94]
500 to 5000,,Cc1nn(-c2ccc(C(N)=O)c(NC3CCC(OC(=O)CCN)CC3)c2)c2c1C(=O)CC(C)(C)C2 (stereo not drawn)
< 500,,Cc1nn(-c2ccc(C(N)=O)c(NC3CCC(OC(=O)CCNC(=O)OC(C)(C)C)CC3)c2)c2c1C(=O)CC(C)(C)C2 (stereo not drawn) [drawing 88]
,A,CC1(C)CC(=O)c2c(C(F)(F)F)nn(-c3ccc(C(N)=O)c(NC4CCC(OC(=O)[C@@H](N)CCCCN)CC4)c3)c2C1.CS(=O)(=O)O.CS(=O)(=O)O (stereo partly drawn)
< 500,,CC1(C)CC(=O)c2c(C(F)F)nn(-c3ccc(C(N)=O)c(N[C@H]4CC[C@H](O)CC4)c3)c2C1 [drawing 85]
,A,CS(=O)(=O)O.Cc1nn(-c2ccc(C(N)=O)c(NC3CCC(OC(=O)CCN)CC3)c2)c2c1C(=O)CC(C)(C)C2 (stereo not drawn)
,A,CC1(C)CC(=O)c2c(C(F)F)nn(-c3ccc(C(N)=O)c(N[C@H]4CC[C@H](O)CC4)c3)c2C1 [drawing 91]
,A,CC1(C)CC(=O)c2c(C(F)(F)F)nn(-c3ccc(C(N)=O)c(NC4CCC(OC(=O)CCNC(=O)[C@@H](N)CCCN)CC4)c3)c2C1.CS(=O)(=O)O.CS(=O)(=O)O (stereo partly drawn)

Compound,IC50 [1] [nM],relative binding affinity to HSP-90 [2]
Cc1nn(-c2ccc(C#N)c(Br)c2)c2c1C(=O)CC(C)(C)C2 [drawing 95],,C
Cc1nn(-c2ccc(C#N)c(Br)c2)c2c1C(=O)CC(C)(C)C2 [drawing 89],5000 to 50000,
